Measurements reported in BindingDB's records for doi:10.1021/acs.jmedchem.8b00401 (2019).

Legend:
[1] = biological target: D(3) dopamine receptor (Homo sapiens, UniProt P35462); experiment: Displacement of [3H]-N-methylspiperone from recombinant human D3R expressed in HEK cell membranes after 90 mins by scintillation counting method
[2] = biological target: Sodium-dependent dopamine transporter (Homo sapiens, UniProt Q01959); experiment: Displacement of [3H]-WIN35428 from recombinant human DAT expressed in HEK cell membranes after 90 mins by scintillation counting method
Sequence of Sodium-dependent dopamine transporter (Q01959 whole entry): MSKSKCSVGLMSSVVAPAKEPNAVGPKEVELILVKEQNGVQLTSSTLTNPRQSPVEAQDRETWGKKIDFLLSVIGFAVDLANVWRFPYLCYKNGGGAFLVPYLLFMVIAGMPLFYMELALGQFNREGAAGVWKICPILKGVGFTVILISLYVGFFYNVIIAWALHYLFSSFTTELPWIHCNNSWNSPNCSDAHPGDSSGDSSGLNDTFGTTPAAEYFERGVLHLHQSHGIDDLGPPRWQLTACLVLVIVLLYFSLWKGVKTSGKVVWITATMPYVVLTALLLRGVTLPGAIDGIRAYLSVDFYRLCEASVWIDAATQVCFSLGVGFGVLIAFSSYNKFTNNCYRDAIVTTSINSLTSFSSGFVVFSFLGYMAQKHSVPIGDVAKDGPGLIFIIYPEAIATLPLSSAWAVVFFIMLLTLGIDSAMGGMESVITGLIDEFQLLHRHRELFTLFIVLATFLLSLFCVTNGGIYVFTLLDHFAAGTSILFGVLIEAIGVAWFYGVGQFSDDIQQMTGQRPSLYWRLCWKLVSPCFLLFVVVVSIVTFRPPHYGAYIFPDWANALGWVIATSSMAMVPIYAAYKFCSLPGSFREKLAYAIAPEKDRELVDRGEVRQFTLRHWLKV

Sequence of D(3) dopamine receptor (P35462 as listed by the source): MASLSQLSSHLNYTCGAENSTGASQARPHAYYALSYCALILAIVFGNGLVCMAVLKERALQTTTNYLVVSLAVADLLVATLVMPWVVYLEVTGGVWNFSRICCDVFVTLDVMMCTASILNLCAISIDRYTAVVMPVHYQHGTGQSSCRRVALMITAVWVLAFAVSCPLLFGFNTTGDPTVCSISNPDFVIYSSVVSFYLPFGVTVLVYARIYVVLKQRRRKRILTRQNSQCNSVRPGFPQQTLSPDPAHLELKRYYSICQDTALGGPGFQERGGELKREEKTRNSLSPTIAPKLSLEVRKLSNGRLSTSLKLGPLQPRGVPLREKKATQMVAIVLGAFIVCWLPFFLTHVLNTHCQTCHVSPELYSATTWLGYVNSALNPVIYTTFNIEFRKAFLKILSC

Ki [1]: 4.7 µM
Ki [2]: 1.8 µM
SMILES: CCCCCCCCCCC[C@@H]1CCN[C@H](C(=O)NCC(O)CO)C1 (some centres not stated)
